From patent EP1022029A1, “NOOTROPIC AGENT” (priority 1997, dated 1999)

Biological target: T1, AMPA (GluR1, 2, 3) receptor (Rattus norvegicus, UniProt P19490+P19491+P19492)
T1 construct: expressed in transfected cells; host or cells: Xenopus oocytes injected with mRNA
Assay: Kainate-evoked currents in GluR1, 2, 3 receptors expressed in Xenopus oocytes
Type: cell-based
Conditions: nefiracetam 1 µM; kainate 100 µM; holding voltage -30 mV; n=5
Protocol: GluR 1, 2, 3 receptors which are AMPA receptors were expressed in Xenopus oocytes. Cell membrane currents evoked with kainate (100 µM) were recorded before and after administration of nefiracetam (1 µM) (n=5). […] The holding voltage was -30 mV. • (B): An oocyte expressing normal ACh receptors was loaded with Calcium Green. In Ca^2+-free (extCa^2+(-)) extracellular solution (extCa^2+(-)) and ordinary (i.e., Ca^2+-containing) extracellular solution, intracellular Ca^2+ ([Ca^2+]i) and Ach-evoked currents (IA) were recorded. The Ca^2+ rise was normalized by dividing "Δ increase of fluorescence intensity (DI)" by "base intensity (I)", and further by "current amplitude obtained with Ca^2+-free solution (2) (µA)". Indicated by "(1)" are currents obtained with Ca^2+-containing solution.
GluR1, 2, 3 receptors were expressed in Xenopus oocytes. Cell membrane currents evoked by kainate (100 µM) were recorded (n = 5) before and after treatment with nefiracetam (1 µM). The holding voltage was fixed at -30 mV.

T1 sequence (P19490 19-907): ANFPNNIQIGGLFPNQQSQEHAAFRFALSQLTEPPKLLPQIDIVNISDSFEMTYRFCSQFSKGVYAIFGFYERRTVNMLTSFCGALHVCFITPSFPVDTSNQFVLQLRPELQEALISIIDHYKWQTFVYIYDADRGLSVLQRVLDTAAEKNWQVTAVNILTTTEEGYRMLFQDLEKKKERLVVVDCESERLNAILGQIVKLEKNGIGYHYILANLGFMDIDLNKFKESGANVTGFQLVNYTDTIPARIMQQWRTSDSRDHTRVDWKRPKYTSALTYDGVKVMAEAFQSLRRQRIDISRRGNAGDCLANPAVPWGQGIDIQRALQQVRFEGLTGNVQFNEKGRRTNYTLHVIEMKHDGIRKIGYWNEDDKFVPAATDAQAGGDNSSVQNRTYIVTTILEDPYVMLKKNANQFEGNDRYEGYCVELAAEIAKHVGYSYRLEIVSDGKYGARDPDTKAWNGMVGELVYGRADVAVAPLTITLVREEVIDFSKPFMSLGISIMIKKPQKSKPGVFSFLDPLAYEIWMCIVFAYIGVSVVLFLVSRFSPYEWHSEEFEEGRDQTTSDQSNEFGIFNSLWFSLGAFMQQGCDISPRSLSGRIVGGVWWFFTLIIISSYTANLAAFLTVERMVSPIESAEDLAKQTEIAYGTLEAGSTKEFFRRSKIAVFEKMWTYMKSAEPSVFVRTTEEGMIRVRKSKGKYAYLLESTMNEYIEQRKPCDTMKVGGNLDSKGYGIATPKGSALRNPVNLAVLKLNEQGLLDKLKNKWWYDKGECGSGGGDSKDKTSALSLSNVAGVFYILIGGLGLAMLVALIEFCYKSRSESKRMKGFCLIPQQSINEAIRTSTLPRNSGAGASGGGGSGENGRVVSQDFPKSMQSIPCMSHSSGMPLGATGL
T1 sequence (P19491 22-883): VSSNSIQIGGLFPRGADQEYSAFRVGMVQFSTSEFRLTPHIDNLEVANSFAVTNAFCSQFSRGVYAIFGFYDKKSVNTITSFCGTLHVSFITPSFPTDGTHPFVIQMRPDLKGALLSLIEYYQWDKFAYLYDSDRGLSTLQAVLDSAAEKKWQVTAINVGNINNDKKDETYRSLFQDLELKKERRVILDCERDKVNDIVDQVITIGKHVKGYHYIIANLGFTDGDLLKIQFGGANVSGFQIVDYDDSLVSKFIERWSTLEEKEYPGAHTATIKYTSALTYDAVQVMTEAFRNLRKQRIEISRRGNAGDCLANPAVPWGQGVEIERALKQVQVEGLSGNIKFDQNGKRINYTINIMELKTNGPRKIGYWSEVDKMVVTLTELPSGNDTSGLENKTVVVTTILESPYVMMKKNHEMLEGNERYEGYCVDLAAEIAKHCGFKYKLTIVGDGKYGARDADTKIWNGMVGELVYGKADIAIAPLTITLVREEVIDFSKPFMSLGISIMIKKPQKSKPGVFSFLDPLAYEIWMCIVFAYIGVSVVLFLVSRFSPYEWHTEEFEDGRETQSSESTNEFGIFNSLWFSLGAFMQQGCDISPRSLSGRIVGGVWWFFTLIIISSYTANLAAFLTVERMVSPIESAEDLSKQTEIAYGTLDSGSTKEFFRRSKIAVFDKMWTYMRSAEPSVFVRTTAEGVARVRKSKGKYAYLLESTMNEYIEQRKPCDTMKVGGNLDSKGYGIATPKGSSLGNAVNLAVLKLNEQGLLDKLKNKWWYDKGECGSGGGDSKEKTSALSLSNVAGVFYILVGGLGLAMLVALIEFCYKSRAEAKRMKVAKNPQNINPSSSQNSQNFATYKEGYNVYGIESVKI
T1 sequence (P19492 23-888): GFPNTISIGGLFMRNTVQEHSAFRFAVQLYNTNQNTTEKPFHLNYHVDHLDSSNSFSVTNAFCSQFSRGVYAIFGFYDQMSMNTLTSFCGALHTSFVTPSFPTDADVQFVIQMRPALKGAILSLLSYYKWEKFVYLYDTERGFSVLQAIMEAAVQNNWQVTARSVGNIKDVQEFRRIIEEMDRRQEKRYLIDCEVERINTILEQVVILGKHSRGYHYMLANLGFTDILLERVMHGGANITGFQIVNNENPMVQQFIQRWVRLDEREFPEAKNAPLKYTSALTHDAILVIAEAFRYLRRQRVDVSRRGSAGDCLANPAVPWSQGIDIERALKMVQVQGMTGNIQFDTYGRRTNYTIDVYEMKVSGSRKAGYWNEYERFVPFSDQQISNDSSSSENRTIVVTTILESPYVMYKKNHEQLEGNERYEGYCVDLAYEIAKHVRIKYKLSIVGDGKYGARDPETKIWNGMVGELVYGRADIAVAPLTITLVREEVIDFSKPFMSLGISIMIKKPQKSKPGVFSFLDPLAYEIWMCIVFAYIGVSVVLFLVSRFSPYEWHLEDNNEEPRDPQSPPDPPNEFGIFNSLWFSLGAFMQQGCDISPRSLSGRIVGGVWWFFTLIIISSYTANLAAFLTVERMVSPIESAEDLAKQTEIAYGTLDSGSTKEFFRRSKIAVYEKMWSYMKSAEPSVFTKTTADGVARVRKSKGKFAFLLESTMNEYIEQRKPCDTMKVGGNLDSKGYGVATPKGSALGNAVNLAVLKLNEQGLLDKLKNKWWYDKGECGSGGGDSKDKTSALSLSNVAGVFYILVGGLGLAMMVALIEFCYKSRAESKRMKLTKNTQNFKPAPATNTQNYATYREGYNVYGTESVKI

Cc1cccc(C)c1NC(=O)CN1CCCC1=O [nefiracetam, 2-oxo-1-pyrrolidinylacetic acid 2,6-dimethylanilide]
effect on AMPA (GluR1, 2, 3) receptor currents (Fig. 1): never potentiated
